The values that follow come from PMC7525492, “Microtiter plate-based antibody-competition assay to determine binding affinities and plasma/blood stability of CXCR4 ligands” (Scientific Reports, 2020).

Where “and” joins values, the source holds several entries; their conditions need not be identical. Equal values may be shown once. Read-outs that look alike come from different tables or passages of the source. Bridge positions count the residues as written; N and C are the ends. Square brackets hold non-standard residues; d marks the D form. Ends that are not written are not given here. Peptide text beside a SMILES is read from it. * marks the point of attachment. 2Nal = N[C@@H](Cc1ccc2ccccc2c1)C(=O)O; Benzoyl(4-F) = O=C(c1ccc(F)cc1)*; Cit = NC(=O)NCCC[C@H](N)C(=O)O

The subject of series [1] is CXCR4-tropic HIV-1. As to conditions: read-out: IC50 HIV-1, TZM-bl cells.
In series [2] the target is T1, CXCR4 (Homo sapiens, UniProt P61073). The experiment in a line: 1D9 control antibody competition on SupT1 cells. In kind it is binding. As to conditions: PE-labelled 1D9, SupT1 cells, single experiment.
T1 sequence (P61073 whole entry): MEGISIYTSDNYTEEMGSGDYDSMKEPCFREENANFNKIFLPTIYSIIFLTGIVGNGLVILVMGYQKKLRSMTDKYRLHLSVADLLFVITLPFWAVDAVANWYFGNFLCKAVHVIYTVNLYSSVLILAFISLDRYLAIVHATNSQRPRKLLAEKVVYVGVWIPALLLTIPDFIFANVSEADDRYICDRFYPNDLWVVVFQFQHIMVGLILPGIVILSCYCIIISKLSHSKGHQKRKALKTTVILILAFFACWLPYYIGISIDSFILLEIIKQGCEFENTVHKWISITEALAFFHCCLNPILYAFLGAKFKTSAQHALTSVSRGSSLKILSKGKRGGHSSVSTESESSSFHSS
Description: Small molec ule (a) or peptide
(b, c) ligands were diluted in PBS and added to precooled SupT1 cells. A constant concentration of PE-labelled
1D9-antibod y (or 12G5- APC antibod y in (c)) was added immediately afterward s. After 2 h i ncub atio n in t he d ark,
cells were washed and analyzed by flo w cyto metry.
by mea s uring t he percenta ge o f gated living cells in flo w c ytome tr y upon treatme nt with the inhibitor.
data derived from a single experiment.
A short description of a further series: in vitro. In kind it is in vitro ADME, human. Here is the method: (§1) Compounds were 150-fold diluted in human plasma or whole human blood to reach final concentrations of 20 µM. The t = 0 sample was immediately taken and stored at − 80 °C. Plasma/compound or blood/compound mixture was then transferred to 37 °C and shook at 350 rpm. At given time points samples were taken and stored at − 80 °C. For measuring the functional activity of the plasma/peptide samples, the mixtures were thawed and serially diluted in ice cold PBS (starting with 100% sample). 12G5-APC antibody competition was then performed as described before. Note, that during the competition process the samples are 1:1 diluted with the antibody and the highest plasma concentration on cells was 50%. For blood/peptide functional stability, samples were thawed and centrifuged at 14,000 rpm for 3 min at 4 °C to remove cells and debris. The supernatant was then serially diluted in PBS (starting with 100% sample) and 12G5-antibody competition assay was performed. After the 2 h incubation, the cells were washed by centrifugation (1.300 rpm, 4 °C) and 50 µL of 1-step-Fix/Lyse solution (Thermo Fisher #00-5333-54) was added for 15 min at room temperature. Afterwards cells were washed again and analyzed for bound antibody.
Statistical analysis was performed in GraphPad Prism (version 8.3.0). IC50 and IC90 curves and the areas under the curves (AUC) were determined by nonlinear regression. For half-life calculations, the IC50 values for each time point as well as the AUCs were analyzed and normalized relative to t = 0. Activities were then determined ((IC50 (t = 0) / IC50 (t)) × 100) for each time point and half-lives determined by a One-Phase-Decay model.

For series [3], the system named is CXCR4-tropic HIV-1. The arrangement: method as in PMID 25921529, PMID 30768790. As to conditions: cited from earlier work.
The nature of series [4]: Functional stability in human plasma read out by 12G5 competition. Type of series: in vitro ADME. As to conditions: for half-life at 20 µM: human, plasma. Here is the method:
as §1, with “The” for “Compounds were 150-fold diluted in human plasma or whole human blood to reach final concentrations of 20 µM. The”, “After the 2 h incubation, the cells were washed by centrifugation (1.300 rpm, 4 °C) and 50 µL of 1-step-Fix/Lyse solution (Thermo Fisher #00-5333-54) was added for 15 min at room temperature.” left out
(§2) Statistical analysis was performed in GraphPad Prism (version 8.3.0). IC50 and IC90 curves and the areas under the curves (AUC) were determined by nonlinear regression.

Series [5] has as its target T1, CXCR4. The series is described as follows: 12G5 antibody competition assay on SupT1 cells. In kind it is binding. As to conditions: for IC50: SupT1 cells, APC-labelled 12G5, 2 h at 4 °C, mean ± SEM of 3 assays; for Ki: calculated from IC50 12G5 by Cheng-Prusoff, Kd of 12G5 151.5 pM. As for the experimental part: Compounds were serially diluted in ice cold PBS and 12G5-APC antibody was diluted in cold PBS containing 1% FCS. […] Plates were incubated at 4 °C in the dark for 2 h. Afterwards cells were washed twice by centrifugation with PBS containing 1% FCS and fixed with 2% paraformaldehyde (PFA). During all pipetting steps, plates were kept cool by using a cooling pad. Antibody binding was analyzed by flow cytometry (FACS CytoFLEX; Beckman Coulter) by determination of the mean fluorescence intensity (MFI) of at least 5.000 cells (50.000 cells per well) or 1.000 cells (5.000 cells per well).
Ki calculation3 Ki=IC50/1+L/Kd
For Ki = inhibitory constant; IC50 = half maximal inhibition for 12G5 binding; [L] = 12G5 concentration; Kd = dissociation constant of 12G5.
as §2

Series [6] addresses T1, CXCR4. The experiment in a line: 12G5 antibody competition assay on SupT1 cells. In kind it is binding. As to conditions: 1, 2 and 4 h incubation, Fig. S2.
A further series deals with CXCL12 migration. As to conditions: cited from earlier work.
For series [7] the following is noted: 20 µM, up to 60 min, 37 °C, mouse plasma from a single animal.
Description: Next, we evaluated whether the competition assay may be applied to measure peptide degradation in mouse plasma.
Plasma from 6 donors was pooled and stored in aliquots at − 80 °C. Mouse plasma was obtained by heart punctation of BL6 mice after cervical dislocation. Blood was 19:1 diluted with 0.16 M NaEDTA and centrifuged at 2000 rcf for 20 min at 4 °C to obtain plasma.
for 60 min at 37°C. At given time points aliquots were taken and stored at - 80°C. Activity of plasma/peptide was
determined using 12G5- antibody competition assay.
The conditions of series [8]: EPI-X4 sandwich ELISA; cited from earlier work. (In general: In an ELISA, binding on a coated surface is turned into a signal by an enzyme label.)
For another series, the system named is CXCR7. As to conditions: cited from earlier work.
The mark [9] stands for this setting: infection rate after 3 days, mean ± SEM of 3 assays.
Setting [10] is: read-out: IC50 Migration, 100 ng/mL CXCL12, 4 h, mean ± SEM of 3 assays.
[11] abbreviates: 20 µM in pooled human plasma (6 donors), 37 °C, from IC50 relative to t = 0, one-phase decay, read-out: half-life t1/2 in plasma.

Turning to `N=C(N)NCCC[C@H](NC(=O)[C@@H]1CSSC[C@H](NC(=O)[C@H](Cc2ccc3ccccc3c2)NC(=O)[C@H](CCCNC(=N)N)NC(=O)[C@H](CCCNC(=N)N)NC(=O)c2ccc(F)cc2)C(=O)N[C@@H](Cc2ccc(O)cc2)C(=O)N[C@@H](CCCNC(N)=O)C(=O)N[C@@H](CCCCN)C(=O)N[C@H](CCCCN)C(=O)N2CCC[C@H]2C(=O)N[C@@H](Cc2ccc(O)cc2)C(=O)N[C@@H](CCCNC(=N)N)C(=O)N[C@@H](CCCNC(N)=O)C(=O)N1)C(N)=O` [BKT-140] ({Benzoyl(4-F)}-RR[2Nal]CY[Cit]K[dK]PYR[Cit]CR-NH2; disulfide 4-13; N-terminus and C-terminus assumed), the IC50 worked out at 435 ± 153 nM in the series on CXCR4-tropic HIV-1 [1] (setting [9]) and 932 ± 131 nM in the series with SupT1 cells (setting [10]). In addition, the “effect on 1D9 antibody binding” value at CXCR4 [2] was “seemed to reduce 1D9 binding”.
As a reminder, the Ki is a measure of affinity in units of concentration, obtained from inhibition or displacement. For IVRWSKKVPCVS [EPI-X4 WSC02], the “half-life t1/2 in blood” value in the series “in vitro” (20 µM in whole EDTA blood of an individual donor, 37 °C) is 9 min. Besides, the half-life at 20 µM in the series “in vitro” (human, 20 µM in whole EDTA blood of an individual donor, 37 °C, read-out: half-life t1/2 in blood) is 8.9 min; in series [4] (20 µM in plasma of an individual donor, 37 °C, read-out: half-life t1/2 in plasma), 9.7 min; in series [4] (setting [11]), 9.7 min; in [4] (20 µM in pooled human plasma, 37 °C, from areas under inhibition curves, read-out: half-life t1/2 in plasma from AUC), 9.7 min. Also, the “stability in blood compared to plasma” value in the series “in vitro” (human, plasma) is recorded as “less stable in blood compared to plasma”. For the same molecule, the IC50 stood at 257 ± 109 nM in the series on CXCR4-tropic HIV-1 [1] (setting [9]); 290 ± 75 nM on CXCR4 [5]; 15800 nM with SupT1 cells (setting [10]); 16000 nM with SupT1 cells (read-out: IC50 migration, SupT1 towards CXCL12). Besides, in the series on CXCR4-tropic HIV-1 [3], the “IC50 CXCR4-tropic HIV-1 infection” value is recorded as “nanomolar range”. Also, in series [4] (20 µM in 99.3% pooled human plasma, 37 °C, 24 h), the “12G5-competing activity after 24 h in plasma” value was “remained partially active”. The “half-life t1/2 in plasma” value in [4] (20 µM in pooled human plasma (6 donors), 37 °C, from IC50 relative to t = 0, one-phase decay) was 10 min; in series [4] (20 µM in pooled human plasma (6 donors), 37 °C, from IC50 relative to t = 0, one-phase decay, listed as WCS02), ~ 10 min. Further, in [4] (human plasma pretreated with 300 µM L-leucinethiol (leucyl aminopeptidase inhibitor)), the “inactivation in plasma with L-leucinethiol” value is listed as “largely prevented WSC02 inactivation”. The Ki on CXCR4 [5] was 111 ± 29 nM. The “IC50, IC90 and AUC after different incubation times” value on CXCR4 [6] is reported as “No significant differences”. Moreover, the “IC50 leukemia cell migration towards CXCL12” value with CXCL12 migration was “nanomolar range”. The “inactivation in mouse plasma versus human plasma” value in series [7] is listed as “more rapid inactivation of the peptide in mouse plasma”.
On to LVRYTKKVPQVSTPTL [EPI-X4], for which the IC50 worked out at 31000 nM in the series on CXCR4-tropic HIV-1 [1], 31400 nM with CXCR4-tropic HIV-1 [1] (setting [9]) and 1780 ± 162 nM on CXCR4 [5]. For the same molecule, the half-life in plasma in series [8] is 17 min and ~ 17 min. In addition, in series [4] (setting [11]), the half-life at 20 µM amounted to 23 min. Also, the Ki at CXCR4 [5] is 677 ± 62 nM. Further, the “IC50 to suppress CXCL12 migration” value in the series with CXCL12 migration is on record as “median micromolar range”. In addition, the CXCR7 binding result in the series with CXCR7 was “does not bind CXCR7”.
